Results as given in article PMC3914206.

Assays:
[1] = molecular target: T1, panel of 442 kinases (Homo sapiens, UniProt P51813); format: binding; design: KINOMEscan: ABL1(F317L)-phosphorylated / KINOMEscan: ABL1(H396P)-nonphosphorylated / KINOMEscan: ABL1(H396P)-phosphorylated / KINOMEscan: ABL1(M351T)-phosphorylated / KINOMEscan: ABL1(T315I)-phosphorylated / KINOMEscan: ABL1-nonphosphorylated / KINOMEscan: ABL1-phosphorylated / KINOMEscan: ACVR2A / KINOMEscan: ACVR2B / KINOMEscan: ADCK3 / KINOMEscan: ADCK4 / KINOMEscan: AKT1 / KINOMEscan: AKT3 / KINOMEscan: ALK / KINOMEscan: ARK5 / KINOMEscan: AURKA / KINOMEscan: AURKC / KINOMEscan: BIKE / KINOMEscan: BMPR1A / KINOMEscan: BMPR1B / KINOMEscan: BMX / KINOMEscan: BRK / KINOMEscan: BRSK1 / KINOMEscan: BRSK2 / KINOMEscan: CAMK1 / KINOMEscan: CAMK1D / KINOMEscan: CAMK1G / KINOMEscan: CAMK2A / KINOMEscan: CAMK2B / KINOMEscan: AAK1 / KINOMEscan: CAMK2D / KINOMEscan: CAMK2G / KINOMEscan: ABL1(F317I)-nonphosphorylated / KINOMEscan: ABL1(F317I)-phosphorylated / KINOMEscan: ABL1(F317L)-nonphosphorylated: unit: % Ctrl; settings: Compound Concentration 10 µM
T1 construct: purchased KINOMEscan
T1 sequence (P51813 1-675): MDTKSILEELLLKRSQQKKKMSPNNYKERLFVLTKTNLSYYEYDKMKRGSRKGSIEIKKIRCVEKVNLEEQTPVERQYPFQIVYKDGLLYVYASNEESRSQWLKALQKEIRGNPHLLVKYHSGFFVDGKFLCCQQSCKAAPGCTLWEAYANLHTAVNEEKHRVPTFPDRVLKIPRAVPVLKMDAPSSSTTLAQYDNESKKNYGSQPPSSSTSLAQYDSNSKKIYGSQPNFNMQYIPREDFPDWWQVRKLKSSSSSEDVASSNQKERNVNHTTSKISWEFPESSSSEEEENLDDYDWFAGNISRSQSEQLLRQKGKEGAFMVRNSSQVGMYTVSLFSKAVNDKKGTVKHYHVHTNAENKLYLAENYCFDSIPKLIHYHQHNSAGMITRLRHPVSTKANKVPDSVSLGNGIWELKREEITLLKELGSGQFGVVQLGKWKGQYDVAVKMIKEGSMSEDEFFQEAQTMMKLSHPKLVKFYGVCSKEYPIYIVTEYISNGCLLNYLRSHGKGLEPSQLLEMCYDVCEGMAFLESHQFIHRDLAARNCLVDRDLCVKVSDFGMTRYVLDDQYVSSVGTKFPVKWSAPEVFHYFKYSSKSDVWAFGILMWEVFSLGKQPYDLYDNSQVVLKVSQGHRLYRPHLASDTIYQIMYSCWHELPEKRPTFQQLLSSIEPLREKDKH
Source text: (§1) We assessed the selectivity of members of this scaffold using the KINOMEscan methodology across a near comprehensive panel of 442 kinases [[18,27]].

[2] = molecular target: T2, panel of 442 kinases (Homo sapiens, UniProt O43283); format: binding; design: KINOMEscan: ABL1(F317L)-phosphorylated / KINOMEscan: ABL1(H396P)-nonphosphorylated / KINOMEscan: ABL1(H396P)-phosphorylated / KINOMEscan: ABL1(M351T)-phosphorylated / KINOMEscan: ABL1(T315I)-phosphorylated / KINOMEscan: ABL1-nonphosphorylated / KINOMEscan: ABL1-phosphorylated / KINOMEscan: ACVR2A / KINOMEscan: ACVR2B / KINOMEscan: ADCK3 / KINOMEscan: ADCK4 / KINOMEscan: AKT1 / KINOMEscan: AKT3 / KINOMEscan: ALK / KINOMEscan: ARK5 / KINOMEscan: AURKA / KINOMEscan: AURKC / KINOMEscan: BIKE / KINOMEscan: BMPR1A / KINOMEscan: BMPR1B / KINOMEscan: BMX / KINOMEscan: BRK / KINOMEscan: BRSK1 / KINOMEscan: BRSK2 / KINOMEscan: CAMK1 / KINOMEscan: CAMK1D / KINOMEscan: CAMK1G / KINOMEscan: CAMK2A / KINOMEscan: CAMK2B / KINOMEscan: AAK1 / KINOMEscan: CAMK2D / KINOMEscan: CAMK2G / KINOMEscan: ABL1(F317I)-nonphosphorylated / KINOMEscan: ABL1(F317I)-phosphorylated / KINOMEscan: ABL1(F317L)-nonphosphorylated: unit: % Ctrl; settings: Compound Concentration 10 µM
T2 construct: purchased KINOMEscan
T2 sequence (O43283 1-966): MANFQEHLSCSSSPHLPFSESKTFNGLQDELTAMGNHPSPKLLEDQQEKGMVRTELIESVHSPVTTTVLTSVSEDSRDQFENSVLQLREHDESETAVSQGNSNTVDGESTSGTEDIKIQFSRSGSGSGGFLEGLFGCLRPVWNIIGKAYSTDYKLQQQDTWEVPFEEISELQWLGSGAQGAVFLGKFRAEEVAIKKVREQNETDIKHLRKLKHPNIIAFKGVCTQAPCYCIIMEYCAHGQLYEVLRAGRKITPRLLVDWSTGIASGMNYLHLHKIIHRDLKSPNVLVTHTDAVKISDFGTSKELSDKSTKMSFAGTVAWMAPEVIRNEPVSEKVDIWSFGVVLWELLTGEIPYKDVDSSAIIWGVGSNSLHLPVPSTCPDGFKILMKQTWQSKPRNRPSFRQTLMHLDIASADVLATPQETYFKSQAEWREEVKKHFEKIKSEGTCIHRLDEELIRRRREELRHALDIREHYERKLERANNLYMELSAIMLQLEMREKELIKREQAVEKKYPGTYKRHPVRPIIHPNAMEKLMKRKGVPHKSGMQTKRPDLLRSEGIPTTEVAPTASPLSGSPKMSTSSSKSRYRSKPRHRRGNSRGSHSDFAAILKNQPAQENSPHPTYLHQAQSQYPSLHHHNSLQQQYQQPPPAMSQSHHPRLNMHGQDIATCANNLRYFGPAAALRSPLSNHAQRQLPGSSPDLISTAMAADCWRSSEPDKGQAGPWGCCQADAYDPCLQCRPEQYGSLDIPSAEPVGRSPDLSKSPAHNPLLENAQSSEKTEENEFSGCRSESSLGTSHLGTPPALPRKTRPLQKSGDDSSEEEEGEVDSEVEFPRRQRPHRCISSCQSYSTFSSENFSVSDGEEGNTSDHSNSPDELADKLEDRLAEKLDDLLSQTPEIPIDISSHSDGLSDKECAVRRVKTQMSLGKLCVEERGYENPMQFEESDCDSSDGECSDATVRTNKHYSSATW
Source text: as §1

## COc1cc(C(=O)N2CCC(N3CCN(C)CC3)CC2)ccc1Nc1ncc2c(n1)N1CCc3cccc(c31)C(=O)N2C [Compound 24]
[1]
  KINOMEscan: BMX: 71

## CCOc1cc(C(=O)N2CCC(N3CCN(C)CC3)CC2)ccc1Nc1ncc2c(n1)N(C1CCCC1)c1ccccc1C(=O)N2C [Compound 26]
[1]
  KINOMEscan: BMX: 100
[2]
  KINOMEscan: LZK: 92

## COc1cc(C(=O)N2CCC(N3CCN(C)CC3)CC2)ccc1Nc1ncc2c(n1)N(C1CCCC1)c1ccccc1C(=O)N2C [Compound 25, 11-cyclopentyl-2-((2-methoxy-4-(4-(4-methylpiperazin-1-yl)piperidine-1-carbonyl)phenyl)amino)-5-methyl-5H-benzo[e]pyrimido[5,4-b][1,4]diazepin-6(11H)-one]
[1]
  KINOMEscan: BMX: 91
[2]
  KINOMEscan: LZK: 100

## COc1cc(C(=O)N2CCC(N3CCN(C)CC3)CC2)ccc1Nc1ncc2c(n1)N(C)c1ccccc1C(=O)N2C [15 (LRRK2-IN-1)]
[1]
  KINOMEscan: BMX: 87
[2]
  KINOMEscan: LZK: 100
